{"source": "patent US10913933B2", "about": "“Bioengineered liver constructs and methods relating thereto” (Wake Forest University Health Sciences, priority 2013, dated 2021)", "test_system": "bioengineered liver organoids", "details": "human, 48 h", "experimental": "For hepatocyte functional analysis, culture medium was collected after the three week incubation. The media was stored at −80° C. until it was used for analysis. For analyzing albumin synthesis, albumin ELISA assay (Bethyl Laboratories Inc.) was carried out on each samples in triplicates. The albumin concentrations were normalized per mg of DNA. The media was also analyzed in the same fashion for urea secretion using a Quantichrome™ Urea Assay Kit (BioAssay Systems, Inc.). […] After 48 hours, media samples were collected and analyzed by mass spectrometry (FIGS. 3C and 3D), and compared with standards of individual metabolites (FIGS. 3A and 3B).\nIn a second experiment, the liver organoids were prepared as described above in Example 1, Section A using LPC seeding and maintenance media. Alternatively, the organoids can be prepared using minimal LPC medium or hFLP medium instead. After seeding with hFLPCs, the discs were cultured for 3 weeks, with harvesting of cells at 1 week and 3 weeks for immunohistochemical and molecular analysis. Assays assessing albumin and urea synthesis and IHC analyses were performed as described above. Gene expression analyses were performed by RT-PCR after harvesting the organoids. Drug metabolism activity in the organoids was assessed after 1 week and 3 weeks of culturing. […] After 3, 6, 12, and 24 hours, media samples were collected and analyzed by mass spectrometry."}
{"smiles": "CCOc1ccc2ccc(=O)oc2c1", "note": "[7-ethoxycoumarin]", "values": [{"measurement": "Phase-1 metabolites found in media", "result": "7-hydroxycoumarin"}]}
